US4745111A, “Anti-anxiety, anti-agitation, and anti-sleepless states 4-substituted 10-cyanomethylenethieno-[4,3-e]benzoazepine derivatives, compositions, and methods of use therefor” (priority 1985, dated 1988)
“Also recorded” adds a separate entry of the source. Where two headings read alike, the source gives them in different places.

How the values were obtained:
[1] = system: apomorphine; experiment: Apomorphine antagonistic action (antidopaminergic action), climbing in mice; assay type: in vivo, mouse; conditions: for ED50: Mus musculus, po, apomorphine 1.21 mg/kg s.c., dose reducing climbing scores by 50% vs control, read-out: Antimonaminergic action: Apomorphine antagonism, mouse, ED50 %; for Antimonaminergic action (in words): apomorphine (mouse) and L-5HTP (rat) antagonism together, comparison of isomers and with comparative substance
Protocol: In mice kept in a suitable environment (e.g. a wiremesh cage), apomorphine (1.21 mg/kg, administered subcutaneously) leads to increased climbing. The animals are observed for 30 minutes after administration of apomorphine, and the climbing is quantified every 2 minutes with the aid of a score. The test substances are administered perorally 60 minutes […] administration of apomorphine. The ED50 % is calculated as the dose which reduces the scores by 50% compared with a control group.

[2] = system: L-5HTP; experiment: L-5-HTP antagonism (serotonin antagonism) in the rat; assay type: in vivo; conditions: po, read-out: Antimonaminergic action: L-5HTP antagonism, rat, ED50 %
Protocol: In the rat (316 mg/kg, administered intraperitoneally), L-5-[…] (L-5HTP), a prodrug for serotonin, leads to signs of agitation, such as shaking of the head, tremors and movements of the front feet. The animals are observed for 1 hour after administration of L-5HTP, and the symptoms occurring are quantified every 10 minutes with the aid of a score. The test substances are administered perorally 1 hour before L-5HTP. The ED50 % is calculated as the dose which produces on average a 50% reduction in the scores observed for a control group.

[3] = system: physostigmin; experiment: Anticholinergic action (protection from physostigmin lethality) in the mouse; assay type: in vivo, mouse (female NMRI); conditions: for ED50: Mus musculus, po, read-out: Anticholinergic action, mouse, ED50 %; for Anticholinergic action (in words): comparison of isomers and with comparative substance
Protocol: A lethal dose (0.825 mg/kg) of physostigmin is administered subcutaneously to groups of 10 female NMRI mice. The test substances are administered orally 30 minutes before administration of physostigmin. The ED50 % is determined as the dose of substance which protects 50% of the animals from death due to physostigmin.

[4] = system: orientation hypermotility; experiment: Sedative action in the mouse (inhibition of orientation hypermotility); assay type: in vivo, mouse (female NMRI); conditions: for ED50: Mus musculus, 0.5 h, female NMRI mice, oral, dose giving 50% reduction in orientation hypermotility, measured from 30 min after administration over 30 min; for Sedative action (in words): comparison of cis/trans isomers and with comparative substance
Protocol: The substances are administered orally to 4-8 groups of female NMRI mice, each group comprising 3 mice. The orientation hypermotility induced by a new environment was determined photoelectrically 30 minutes after administration of the substances, over a period of 30 minutes.
The ED50 %, i.e. the dose which produces a 50% reduction in orientation hypermotility compared to placebo-treated control animals, is determined.

[5] = L-5HTP 316 mg/kg i.p., substance p.o. 1 hour before, 50% reduction in scores

| SMILES | ED50 [1] | ED50 [2, 5] | ED50 [3] | ED50 [4] | Antimonaminergic action (in words) [1] | Anticholinergic action (in words) [3] | Sedative action (in words) [4] | ED50 [2] |
| --- | --- | --- | --- | --- | --- | --- | --- | --- |
| CN1CCN(C2=Nc3ccccc3C(=CC#N)c3cscc32)CC1 (mixture of isomers) [Example 1, cis,trans-10-cyanomethylene-4-(4-methylpiperazin-1-yl)-thieno[4,3-e]benzoazepine] | 1.7 mg/kg | 0.77 mg/kg | 15.8 mg/kg | 0.89 mg/kg |  |  |  |  |
| CN1CCN(C2=Nc3cc(Cl)ccc3C(=CC#N)c3cscc32)CC1 (mixture of isomers) [Example 3, cis,trans-7-chloro-10-cyanomethylene-4-(4-methylpiperazin-1-yl)-thieno[4,3-e]benzoazepine] | ~2 mg/kg | 0.8 mg/kg | > 21.5 mg/kg | 0.89 mg/kg |  |  |  |  |
| CN1CCN(C2=Nc3cc(F)ccc3C(=CC#N)c3cscc32)CC1 (mixture of isomers) [Example 4, cis,trans-7-fluoro-10-cyanomethylene-4-(4-methylpiperazin-1-yl)-thieno[4,3-e]benzoazepine] | ~2 mg/kg | 1 mg/kg | ~21 mg/kg | 3.27 mg/kg |  |  |  |  |
| Cc1ccc2c(c1)N=C(N1CCN(C)CC1)c1cscc1C2=CC#N (mixture of isomers) [Example 5, cis,trans-7-methyl-10-cyanomethylene-4-(4-methylpiperazin-1-yl)-thieno[4,3-e]benzoazepine] | ~2.1 mg/kg | 1.4 mg/kg | > 21.5 mg/kg | 3.75 mg/kg |  |  |  |  |
| CCN1CCN(C2=Nc3ccccc3C(=CC#N)c3cscc32)CC1 (mixture of isomers) [Example 9, cis,trans-10-cyanomethylene-4-(4-ethylpiperazin-1-yl)-thieno[4,3-e]benzoazepine] | 1 mg/kg |  | > 10 mg/kg | 0.81 mg/kg |  |  |  |  |
| CN1CCN(C2=Nc3ccccc3/C(=C\C#N)c3cscc32)CC1 [1 (trans), trans-10-cyanomethylene-4-(4-methylpiperazin-1-yl)-thieno[4,3-e]benzoazepine] | 10.9 mg/kg | 33 mg/kg | 5.2 mg/kg | 5.1 mg/kg | fairly weak | predominates; also recorded: stronger than that of the comparative substances | fairly weak |  |
| CN1CCN(C2=Nc3cc(Cl)ccc3Nc3ccccc32)CC1 [Clozapine, clozapine, reference compound] | 11.3 mg/kg | 6.3 mg/kg |  | 3.8 mg/kg |  |  |  |  |
| CN1CCN(C2=Nc3ccccc3/C(=C/C#N)c3cscc32)CC1 [Example 1 (cis), cis-10-cyanomethylene-4-(4-methylpiperazin-1-yl)-thieno[4,3-e]benzoazepine] | 1 mg/kg | 1 mg/kg | > 10 mg/kg | 0.35 mg/kg | displayed preferentially by the cis isomer | greatly reduced | displayed preferentially by the cis isomer |  |
| CN1CCN(C2=Nc3c(Cl)cccc3/C(=C\C#N)c3cscc32)CC1 [Example 16, trans-6-chloro-10-cyanomethylene-4(4-methylpiperazin-1-yl)-thieno[4,3-e]benzoazepine] |  |  | > 10 mg/kg | ~3 mg/kg |  |  |  | 1 mg/kg |
